Key:
Acetylcholinesterase [1] = target: T1, Acetylcholinesterase (Homo sapiens, UniProt P22303); test: Inhibition of AChE at 10 uM by Ellman's assay
Acetylcholinesterase [2] = target: T1, Acetylcholinesterase; test: Inhibition of AChE by Ellman's assay

T1 sequence (P22303 whole entry): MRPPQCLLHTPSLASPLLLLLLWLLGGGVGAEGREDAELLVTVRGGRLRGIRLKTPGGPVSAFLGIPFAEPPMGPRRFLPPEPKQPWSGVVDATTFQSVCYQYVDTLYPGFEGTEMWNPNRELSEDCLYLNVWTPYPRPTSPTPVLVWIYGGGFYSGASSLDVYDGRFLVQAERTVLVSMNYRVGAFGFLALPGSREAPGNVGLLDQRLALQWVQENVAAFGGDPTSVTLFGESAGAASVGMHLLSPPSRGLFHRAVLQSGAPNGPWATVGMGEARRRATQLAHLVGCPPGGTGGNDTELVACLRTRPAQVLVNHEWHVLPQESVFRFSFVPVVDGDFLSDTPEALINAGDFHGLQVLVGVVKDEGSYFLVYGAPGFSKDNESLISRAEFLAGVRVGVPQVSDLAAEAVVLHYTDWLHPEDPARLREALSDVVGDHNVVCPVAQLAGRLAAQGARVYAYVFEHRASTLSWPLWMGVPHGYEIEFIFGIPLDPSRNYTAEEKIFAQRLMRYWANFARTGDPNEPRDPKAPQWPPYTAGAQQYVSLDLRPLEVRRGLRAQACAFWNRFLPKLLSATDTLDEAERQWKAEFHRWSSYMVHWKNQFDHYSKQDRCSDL

| Compound | Ki (Acetylcholinesterase [1]) | Ki (Acetylcholinesterase [2]) |
| --- | --- | --- |
| COc1cc2c(cc1O)[C@@H]1[C@H](O)[C@@H](O)C=C3CCN(C2)[C@H]31 [PSEUDOLYCORINE] | Not Active | – |
| CC(=O)O[C@H]1C=C2CCN3Cc4cc5c(cc4[C@H]([C@@H]1OC(=O)c1ccccc1)[C@@H]23)OCO5 | – | 970 nM |
| CC(=O)O[C@H]1[C@H]2c3cc4c(cc3CN3CCC(=C[C@@H]1OC(C)=O)[C@H]23)OCO4 | Not Active | – |
| CC(C)(C)[Si](C)(C)O[C@H]1C=C2CCN3Cc4cc5c(cc4[C@H]([C@@H]1O)[C@@H]23)OCO5 | – | 860 nM |
| COc1cc2c(cc1OC)[C@H]1[C@H]3C(=CC[C@H]1OC2=O)CCN3C [HOMOLYCORINE] | Not Active | – |
| O=C(O[C@H]1[C@H]2c3cc4c(cc3CN3CCC(=C[C@@H]1O)[C@H]23)OCO4)c1ccccc1 | – | 540 nM |
| CC(=O)O[C@H]1[C@H]2c3cc4c(cc3CN3CCC(=C[C@@H]1O[Si](C)(C)C(C)(C)C)[C@H]23)OCO4 | – | 340 nM |
| CO[C@H]1C=C[C@@]23c4cc5c(cc4CN(C[C@@H]2O)[C@H]3C1)OCO5 | Not Active | – |
| CC(=O)O[C@H]1[C@H]2c3cc4c(cc3CN3CCC(=C[C@@H]1O)[C@H]23)OCO4 | – | 430 nM |
| CO[C@H]1C=C2[C@H]3CN(Cc4cc5c(cc43)OCO5)[C@H]2C[C@@H]1O [MONTANINE] | Not Active | – |
| CO[C@@H]1C=C[C@@]23c4cc5c(cc4CO[C@]2(O)CN(C)[C@H]3C1)OCO5 [TAZETTINE] | Not Active | – |
| O[C@H]1[C@H]2c3cc4c(cc3CN3CCC(=C[C@@H]1O)[C@H]23)OCO4 [LYCORINE] | Not Active | – |
| O[C@H]1C=C[C@@]23CCN(Cc4cc5c(cc42)OCO5)[C@@H]3C1 [CRININE] | Not Active | – |
| CC(C)(C)[Si](C)(C)O[C@H]1C=C2CCN3Cc4cc5c(cc4[C@H]([C@@H]1OC(=O)c1ccccc1)[C@@H]23)OCO5 | – | 390 nM |

Source: ChEMBL document CHEMBL1221246, “Structure-activity studies on acetylcholinesterase inhibition in the lycorine series of Amaryllidaceae alkaloids” (Bioorg Med Chem Lett, 2010)
